Source: publication PMC8228537, “Acrylonitrile Derivatives against Trypanosoma cruzi: In Vitro Activity and Programmed Cell Death Study” (Pharmaceuticals, 2021)
“Also recorded” adds a separate entry of the source.

Experiments:
[1] = test system: epimastigote stage of T. cruzi; assay: Antiparasitic activity, alamarBlue, epimastigotes; type: cell-based, Trypanosoma cruzi; conditions: for IC50: 72 h, epimastigote stage of T. cruzi (Y strain), alamarBlue, mean ± SD, NA: not active; for Selectivity index (SI): ratio of CC50 for J774A.1 and IC50 for epimastigotes of T. cruzi
Description: Epimastigotes of Trypanosoma cruzi (Y strain) were used in this study and cultured in liver infusion tryptose (LIT) medium supplemented with 10% of foetal bovine serum (FBS) at 26 °C.
In a sterile 96-well plate, a serial dilution of acrylonitriles was carried out in LIT medium supplemented with 10% FBS with a final volume of 100 µL. Parasites were added to wells to reach a concentration of 10^5 parasites per well. Finally, a 10% of alamarBlue Cell Viability Reagent® (ThermoFisher Scientific, Waltham, MA, USA) was added into each well, and the plate was incubated for 72 h at 26°C.

[2] = Cytotoxicity, alamarBlue, murine macrophages; type: cell-based; conditions: mouse, J774A.1 murine macrophage cell line, J774A.1 murine macrophages, mean ± SD
Description: The cytotoxicity was evaluated against murine macrophages (J774A.1) using the same method mentioned in the antiparasitic assay, based on the alamarBlue Cell Viability Reagent®. In a sterile 96-well plate, 10^4 cells per well were added, then, after the complete adhesion, serial dilutions of the 32 compounds, using a deep well plate, and a 10% of alamarBlue® were joined.

[3] = test system: Trypanosoma cruzi; assay: Programmed cell death study (overall conclusion from the PCD assays); type: cell-based; conditions: overall conclusion from ROS, mitochondrial potential, ATP and chromatin condensation assays
Description: Different assays were performed to elucidate which pathways could be triggered by these acrylonitriles. The most probable cellular process induced by our compounds is the apoptosis or programmed cell death (PCD), in which the inflammatory response is weakly activated, in contrast to a necrotic event, where the inflammatory response is strong.

[4] = test system: epimastigotes of Trypanosoma cruzi; assay: Reactive oxygen species analysis (CellROX Deep Red); type: cell-based; conditions: 24 h with the IC90, Figure 5
Description: The CellROX® reagent emits red fluorescence in the presence of reactive oxygen species.
The oxidative stress was measured with the CellROX® Deep Red Reagent (ThermoFisher Scientific, MA, USA). […] Finally, the fluorescence was analyzed using the EVOS® FL Cell Imaging System (ThermoFisher Scientific, MA, USA) with the Cy5 light cube.

[5] = test system: epimastigotes of Trypanosoma cruzi; assay: Chromatin condensation analysis (Hoechst 33342/propidium iodide); type: cell-based; conditions: 24 h with the IC90, Figure 1
Description: Vybrant® Apoptosis Assay Kit n°5, Hoechst 33342/Propidium Iodide (ThermoFisher Scientific, MA, USA) was used to determinate the chromatin condensation of the treated parasites. […] Thereafter, Hoechst (5 µg/mL) and propidium iodide (PI) (1 µg/mL) were added and incubated for 20 min at 26 °C. The EVOS® FL Cell Imaging System (ThermoFisher Scientific, MA, USA) was used to capture the fluorescence images, using the DAPI (Hoechst) and RFP (PI) light cubes.

[6] = test system: epimastigotes of Trypanosoma cruzi; assay: Plasmatic membrane permeability analysis (SYTOX Green); type: cell-based; conditions: 24 h with the IC90, Figure 4
Description: The use of the dye SYTOX® Green reagent means that when the plasmatic permeability is altered, it is possible for the reagent to go inside the cells, joining the parasitic DNA and emitting an intense green fluorescence.
To determine the plasmatic membrane permeability, SYTOX® Green nucleic acid stain fluorescent dye (ThermoFisher Scientific, MA, USA) was used. […] The pellet was resuspended in a 50 µL staining buffer and the Sytox® Green at 1 µM (final concentration). After 15 min of incubation at room temperature, parasites were analyzed. Fluorescence pictures were taken with the EVOS® FL Cell Imaging System (ThermoFisher Scientific, MA, USA).

[7] = test system: epimastigotes of Trypanosoma cruzi; assay: ATP level analysis (CellTiter-Glo); type: cell-based; conditions: 24 h with the IC90, CellTiter-Glo, Figure 3
Description: Variations in the level of ATP were measured with the CellTiter-Glo® Luminescent Cell Viability Assay (Promega, WI, USA). […] Then, in a white 96-well plate, the epimastigotes were resuspended in 25µL of culture media and mixed with 25 µL of the kit. After 10 min of incubation at room temperature, the luminescence was measured using an EnSpire Multimode Plate Reader® (PerkinElmer). The results were expressed in percentage of production of ATP level relative to the negative control (without any treatment).

SMILES	IC50 ([1]; Trypanosoma cruzi) [µM]	CC50 at 24 h [2] [µM]	Induction of programmed cell death (apoptosis-like process) [3]	Reactive oxygen species (CellROX Deep Red fluorescence) [4]	Selectivity index (SI) [1]	Chromatin condensation (Hoechst 33342 blue fluorescence) [5]	Dead cells (propidium iodide red fluorescence) [5]	Plasma membrane permeability (SYTOX Green fluorescence) [6]	Percentage of ATP level relative to untreated control [7] [%]	IC50 [1] [µM]
COC(=O)/C=C/C#N [Compound Q1, (E)-Methyl 3-cyanoacrylate]	17.4 ± 4.75	87.4 ± 7.02	did not show evidence of causing a programmed cell death mechanism							
COC(=O)/C=C\C#N [Compound Q2, (Z)-Methyl 3-cyanoacrylate]	25.9 ± 2.78	112 ± 15.8	did not show evidence of causing a programmed cell death mechanism							
CCOC(=O)/C=C/C#N [Compound Q3, (E)-Ethyl 3-cyanoacrylate]	46.4 ± 5.73	86.7 ± 22.8	did not show evidence of causing a programmed cell death mechanism	most intense red fluorescence						
CCOC(=O)/C=C\C#N [Compound Q4, (Z)-Ethyl 3-cyanoacrylate]	47.3 ± 10.6	43.2 ± 9.83			0.91					
CCCCCCCCOC(=O)/C=C/C#N [Compound Q5, (E)-Octyl 3-cyanoacrylate]	34.3 ± 1.67	53.9 ± 12.8	robust evidence of inducing all the physiological features of an apoptosis-like process	less intense fluorescence		intense blue fluorescence in the nucleus, indicating chromatin condensation	red fluorescence, indicating already dead cells	more remarkable		
CCCCCCCCOC(=O)/C=C\C#N [Compound Q6, (Z)-Octyl 3-cyanoacrylate]	51.9 ± 7.69	28.8 ± 2.53			0.55					
N#C/C=C/C(=O)Oc1ccccc1 [Compound Q7, (E)-phenyl 3-cyanoacrylate]	15.5 ± 1.27	46.5 ± 3.81	robust evidence of inducing all the physiological features of an apoptosis-like process; also recorded: shown to induce an apoptosis-like cell death	less intense fluorescence		intense blue fluorescence in the nucleus, indicating chromatin condensation	red fluorescence, indicating already dead cells	more remarkable	32.68	
N#C/C=C\C(=O)Oc1ccccc1 [Compound Q8, (Z)-phenyl 3-cyanoacrylate]	4.36 ± 0.26	52.9 ± 4.51	shown to induce an apoptosis-like cell death	less intense fluorescence						
CCCCCC(=O)/C=C/C#N [Compound Q10, (E)-4-Oxonon-2-enenitrile]	11 ± 1.38	10.1 ± 1.46			0.92					
N#C/C=C/C(=O)c1ccccc1 [Compound Q11, (E)-4-Oxo-4-phenylbut-2-enenitrile]	5.53 ± 1.36	5.22 ± 1.02			0.94					
N#C/C=C\C(=O)c1ccccc1 [Compound Q12, (Z)-4-Oxo-4-phenylbut-2-enenitrile]	20.9 ± 4.61	7.64 ± 1.21			0.36					
N#C/C=C/C(=O)c1cccs1 [Compound Q13, (E)-4-Oxo-4-(thiophen-2-yl)but-2-enenitrile]	25 ± 0.62	8.52 ± 0.04			0.34					
N#C/C=C\C(=O)c1cccs1 [Compound Q14, (Z)-4-Oxo-4-(thiophen-2-yl)but-2-enenitrile]	26.5 ± 2.83	8.39 ± 0.25								
N#C/C=C/C(=O)c1ccco1 [Compound Q15, (E)-4-(Furan-2-yl)-4-oxobut-2-enenitrile]	32.9 ± 0.83	6.66 ± 1.77			0.20					
N#C/C=C/C(=O)C1CCCCC1 [Compound Q16, (E)-4-Cyclohexyl-4-oxobut-2-enenitrile]	7.65 ± 1.51	4.35 ± 0.25			0.57					
N#C/C=C/C(=O)CCc1ccccc1 [Compound Q17, (E)-4-Oxo-6-phenylhex-2-enenitrile]	14.1 ± 2.53	5.24 ± 0.7			0.37					
CCOP(=O)(/C=C/C#N)OCC [Compound Q18, (E)-Diethyl 2-cyanovinylphosphonate]				less intense fluorescence			red fluorescence, indicating already dead cells			14.8 ± 3.06
N#C/C=C/P(=O)(c1ccccc1)c1ccccc1 [Compound Q19, (E)-3-(diphenylphosphoryl)acrylonitrile]	14.6 ± 3.44	22.2 ± 3.24	robust evidence of inducing all the physiological features of an apoptosis-like process			intense blue fluorescence in the nucleus, indicating chromatin condensation	red fluorescence, indicating already dead cells	more remarkable	30.78	
N#C/C=C\P(=O)(c1ccccc1)c1ccccc1 [Compound Q20, (Z)-3-(diphenylphosphoryl)acrylonitrile]	49.1 ± 1.12	50.6 ± 10.8			1.03					
Cc1ccc(S(=O)(=O)/C=C/C#N)cc1 [Compound Q21, (E)-3-Tosylacrylonitrile]	3.86 ± 0.67				0.83					
N#C/C=C/C(=O)N1CCCC1 [Compound Q25, (E)-4-Oxo-4-(pyrrolidin-1-yl)but-2-enenitrile]	154 ± 19.8	374 ± 47.9	did not show evidence of causing a programmed cell death mechanism							
CON(C)C(=O)/C=C/C#N [Compound Q27, (E)-3-Cyano-N-methoxy-N-methylacrylamide]	291 ± 47	480 ± 29.1	robust evidence of inducing all the physiological features of an apoptosis-like process	less intense fluorescence			red fluorescence, indicating already dead cells	more remarkable	< 1	
CON(C)C(=O)/C=C\C#N [Compound Q28, (Z)-3-Cyano-N-methoxy-N-methylacrylamide]		210 ± 8.99								
CN(C(=O)/C=C/C#N)c1ccccc1 [Compound Q29, (E)-3-Cyano-N-methyl-N-phenylacrylamide]	138 ± 14	327.9 ± 2.85	robust evidence of inducing all the physiological features of an apoptosis-like process	less intense fluorescence		intense blue fluorescence in the nucleus, indicating chromatin condensation	red fluorescence, indicating already dead cells	more remarkable	< 1	
